# Experimental data reported in patent publication US20240360146A1, “BRUTON'S TYROSINE KINASE AND MUTANT DEGRADER, COMPOSITION AND APPLICATION THEREOF” (HANGZHOU HEALZEN THERAPEUTICS CO., LTD., priority 2021, published 2024).
# Target: T1, BTK (Homo sapiens, UniProt Q06187)
# T1 construct: endogenous in cells; host or cells: Mino cells
# Experiment: BTK degradation activity test in Mino cells
# Type: cell-based
# Settings: 16 h incubation, Western blot or Elisa
# Method: Mino cell line cells were seeded at 500,000 to 1,000,000 cells/well in a 6-well plate. The compounds were diluted to different concentrations and added to the plate, and after 16 h of incubation, cells were harvested. After lysing the cells, the total protein concentration in each well was determined using the BCA method. The amount of BTK was determined using Western blot or Elisa method. The amount of undegraded BTK protein at each drug concentration was compared with the amount of BTK protein in the blank control group to calculate the degradation rate. The degradation curve was drawn based on the degradation rate at each concentration, and the half degradation concentration (DC50) was calculated by fitting.
# T1 sequence (Q06187 whole entry): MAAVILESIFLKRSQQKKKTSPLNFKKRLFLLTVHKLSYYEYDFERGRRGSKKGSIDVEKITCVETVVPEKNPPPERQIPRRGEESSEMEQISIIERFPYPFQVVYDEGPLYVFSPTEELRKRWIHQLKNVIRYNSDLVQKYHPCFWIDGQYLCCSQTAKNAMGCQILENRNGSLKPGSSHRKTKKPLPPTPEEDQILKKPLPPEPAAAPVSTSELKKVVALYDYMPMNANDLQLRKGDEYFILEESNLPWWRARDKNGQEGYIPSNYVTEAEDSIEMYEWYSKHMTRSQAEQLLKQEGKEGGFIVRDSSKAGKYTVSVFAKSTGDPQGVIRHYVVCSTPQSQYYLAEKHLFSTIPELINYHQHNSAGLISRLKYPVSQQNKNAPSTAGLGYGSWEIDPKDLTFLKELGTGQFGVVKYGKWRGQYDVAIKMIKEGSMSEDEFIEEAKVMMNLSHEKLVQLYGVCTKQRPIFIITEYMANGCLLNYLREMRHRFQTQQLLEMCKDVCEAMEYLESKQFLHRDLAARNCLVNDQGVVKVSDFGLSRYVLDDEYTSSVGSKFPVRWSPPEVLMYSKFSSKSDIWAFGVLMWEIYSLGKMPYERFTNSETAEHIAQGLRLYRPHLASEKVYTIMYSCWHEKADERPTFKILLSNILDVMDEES
row,Compound,DC50 [nM]
1,"CN1C(=O)N(C2CCCN(c3cnc(C(N)=O)c(Nc4ccc(C5(C)CCN(C6CN(c7ccc8c(c7)C(=O)N(C7CCC(=O)NC7=O)C8=O)C6)CC5)cc4)n3)C2)C2CCCC21 (stereo not drawn) [Compound 008, 3-((4-(1-(1-(2-(2,6-dioxopiperidin-3-yl)-1,3-dioxoisoindol-5-yl)azetidin-3-yl)-4-methylpiperidin-4-yl)phenyl)amino)-5-(3-(3-methyl-2-oxohexahydrocyclopenta[d]imidazol-1(2H)-yl)piperidin-1-yl)pyrazin-2-carboxamide]",< 1
2,"CN1C(=O)N(C2CCCN(c3cnc(C(N)=O)c(Nc4ccc(C5(C)CCN(C6CN(c7ccc8c(c7)C(=O)N(C7CCC(=O)NC7=O)C8=O)C6)CC5)cc4)n3)C2)CC12CC2 (stereo not drawn) [Compound 010, 3-((4-(1-(1-(2-(2,6-dioxopiperidin-3-yl)-1,3-dioxoisoindol-5-yl)azetidin-3-yl)-4-methylpiperidin-4-yl)phenyl)amino)-5-(3-(4-methyl-5-oxo-4,6-diazaspirocyclo[2.4]heptan-6-yl)piperidin-1-yl)pyrazin-2-carboxamide]",> 1
3,"CN1CCN(C2CC3CC2N(c2nnc(C(N)=O)c(Nc4ccc(C5CCN(C6CN(c7cc8c(cc7F)C(=O)N(C7CCC(=O)NC7=O)C8=O)C6)CC5)cc4)n2)C3)C1=O (stereo not drawn) [Compound 051, 5-((4-(1-(1-(2-(2,6-dioxopiperidin-3-yl)-6-fluoro-1,3-dioxoisoindolin-5-yl)azetidin-3-yl)piperidin-4-yl)phenyl)amino)-3-(-6-(3-methyl-2-oxoimidazolin-1-yl)-2-azabicyclo[2.2.1]heptan-2-yl)-1,2,4-triazin-6-carboxamide]",< 1
4,"CC1(c2ccc(Nc3nc(N4CCCC(N5CCN(C6COC6)C5=O)C4)cnc3C(N)=O)cc2)CCN(C2CCN(c3ccc4c(c3)CN(C3CCC(=O)NC3=O)C4=O)CC2)CC1 (stereo not drawn) [Compound 013, 3-((4-(1′-(2-(2,6-dioxopiperidin-3-yl)-1-oxoisoindol-5-yl)-4-methyl-[1,4′-bipiperidin]-4-yl)phenyl)amino)-5-(3-(3-(oxetan-3-yl)-2-oxoimidazolin-1-yl)piperidin-1-yl)pyrazin-2-carboxamide]",< 1
5,"CN1CCN(C2CC3CCC2N(c2cnc(C(N)=O)c(Nc4ccc(C5CCN(C6CN(c7ccc8c(c7)C(=O)N(C7CCC(=O)NC7=O)C8=O)C6)CC5)cc4)n2)C3)C1=O (stereo not drawn) [Compound 050, 3-((4-(1-(1-(2-(2,6-dioxopiperidin-3-yl)-1,3-dioxoisoindolin-5-yl)azetidin-3-yl)piperidin-4-yl)phenyl)amino)-5-(-6-(3-methyl-2-oxoimidazolin-1-yl)-2-azabicyclo[2.2.2]octan-2-yl)pyrazin-2-carboxamide]",< 1
6,"CN1CCN([C@@H]2CCCN(c3nnc(C(N)=O)c(Nc4ccc(N5CCN(CC#Cc6ccn7c(N8CCC(=O)NC8=O)cnc7c6)CC5)c(F)c4)n3)C2)C1=O [Compound 246, (R)-5-((4-(4-(3-(3-(2,4-dioxotetrahydropyrimidin-1(2H)-yl)imidazo[1,2-a]pyridin-7-yl)propan-2-yn-1-yl)piperazin-1-yl)-3-fluorophenyl)amino)-3-(3-(3-methyl-2-oxoimidazolidin-1-yl)piperidin-1-yl)-1,2,4-triazin-6-carboxamide]",< 1
7,"CN1CCN([C@@H]2CCCN(c3nnc(C(N)=O)c(Nc4ccc(N5CCN(CC6CCN(c7ccc8c9c(oc8c7)C(=O)N(C7CCC(=O)NC7=O)C9)C6)CC5)c(F)c4)n3)C2)C1=O (stereo partly drawn) [Compound 221, 5-((4-(4-((1-(2-(2,6-dioxopiperidin-3-yl)-3-oxo-2,3-dihydro-H-benzofuro[2,3-c]pyrrol-6-yl)pyrrolidin-3-yl)methyl)piperazin-1-yl)-3-fluorophenyl)amino)-3-((R)-3-(3-methyl-2-oxoimidazolidin-1-yl)piperidin-1-yl)-1,2,4-triazin-6-carboxamide]",< 1
8,"CN1CCN([C@@H]2CCCN(c3nnc(C(N)=O)c(Nc4ccc(N5CCN(CC6CCN(c7cccc8c(C(=O)NC9CCC(=O)NC9=O)cccc78)CC6)CC5)c(F)c4)n3)C2)C1=O (stereo partly drawn) [Compound 249, 5-((4-(4-((1-(5-((2,6-dioxopiperidin-3-yl)carbamoyl)naphthalen-1-yl)piperidin-4-yl)methyl)piperazin-1-yl)-3-fluorophenyl)amino)-3-((R)-3-(3-methyl-2-oxoimidazolidin-1-yl)piperidin-1-yl)-1,2,4-triazin-6-carboxamide]",< 1
9,"CN1CCN([C@@H]2CCCN(c3nnc(C(N)=O)c(Nc4ccc(N5CCN(C[C@@H]6CCN(c7ccc(C(=O)N[C@H]8CCC(=O)NC8=O)nc7)C6)CC5)c(F)c4)n3)C2)C1=O [Compound 154, 5-((4-(4-(((S)-1-(6-(((S)-2,6-dioxopiperidin-3-yl)carbamoyl)pyridin-3-yl)pyrrolidin-3-yl)methyl)piperazin-1-yl)-3-fluorophenyl)amino)-3-((R)-3-(3-methyl-2-oxoimidazolin-1-yl)piperidin-1-yl)-1,2,4-triazin-6-carboxamide]",< 1
10,"CC1(c2ccc(Nc3nc(N4CCCC(N5CCN(C6CCCC6)C5=O)C4)cnc3C(N)=O)cc2)CCN(C2CN(c3ccc4c(=O)n(C5CCC(=O)NC5=O)ccc4c3)C2)CC1 (stereo not drawn) [Compound 023, 5-(3-(3-cyclopentyl-2-oxoimidazolin-1-yl)piperidin-1-yl)-3-((4-(1-(1-(2-(2,6-dioxopiperidin-3-yl)-1-oxo-1,2-dihydroisoquinolin-6-yl)azetidin-3-yl)-4-methylpiperidin-4-yl)phenyl)amino)pyrazin-2-carboxamide]",> 1
11,"CCN1CCN(C2CCCN(c3nnc(C(N)=O)c(Nc4ccc(C5CCN(CC6CCN(c7ccc8c(c7)C(=O)N(C7CCC(=O)NC7=O)C8=O)CC6)CC5)cc4)n3)C2)C1=O (stereo not drawn) [Compound 054, 5-((4-(1-((1-(2-(2,6-dioxopiperidin-3-yl)-1,3-dioxoisooctyl-5-yl)piperidin-4-yl)methyl)piperidin-4-yl)phenyl)amino)-3-(3-(3-ethyl-2-oxyimidazolin-1-yl)piperidin-1-yl)-1,2,4-triazin-6-carboxamide]",< 1
12,"CN1CCN([C@@H]2CCCN(c3nnc(C(N)=O)c(Nc4ccc(N5CCN(CC6CCN(c7ccc(NC8CCC(=O)NC8=O)cn7)C6)CC5)c(F)c4)n3)C2)C1=O (stereo partly drawn) [Compound 201, 5-((4-(4-((1-(5-((2,6-dioxopiperidin-3-yl)amino)pyridin-2-yl)pyrrolidin-3-yl)methyl)piperazin-1-yl)-3-fluorophenyl)amino)-3-((R)-3-(3-methyl-2-oxoimidazolidin-1-yl)piperidin-1-yl)-1,2,4-triazin-6-carboxamide]",< 1

# Next, values leading:
row,DC50 [nM],Compound
1,< 1,"NC(=O)c1ncc(N2CCCC(N3CCN(C4CCCC4)C3=O)C2)nc1Nc1ccc(C2CCN(CC3CCN(c4cc5c(cc4F)C(=O)N(C4CCC(=O)NC4=O)C5=O)C3)CC2)cc1 (stereo not drawn) [Compound 052, 5-(3-(3-cyclopentyl-2-oxoimidazolin-1-yl)piperidin-1-yl)-3-((4-(1-((1-(2-(2,6-dioxopiperidin-3-yl)-6-fluoro-1,3-dioxoisoindolin-5-yl)pyrrolidin-3-yl)methyl)piperidin-4-yl)phenyl)amino)pyrazin-2-carboxamide]"
2,< 1,"CC1(c2ccc(Nc3nc(N4CCCC(N5CC6CCCCN6C5=O)C4)cnc3C(N)=O)cc2)CCN(C2CN(c3ccc4c(c3)C(=O)N(C3CCC(=O)NC3=O)C4=O)C2)CC1 (stereo not drawn) [Compound 006, 3-((4-(1-(1-(2-(2,6-dioxopiperidin-3-yl)-1,3-dioxoisoindol-5-yl)azetidin-3-yl)-4-methylpiperidin-4-yl)phenyl)amino)-5-(3-(3-oxohexahydroimidazo[1,5-a]pyridin-2(3H)-yl)piperidin-1-yl)pyrazin-2-carboxamide]"
3,< 1,"NC(=O)c1nnc(N2CCCC(N3CCN(C4CCCC4)C3=O)C2)nc1Nc1ccc(C2CCN(CC3CCN(c4ccc5c(c4)C(=O)N(C4CCC(=O)NC4=O)C5=O)CC3)CC2)cc1 (stereo not drawn) [Compound 060, 3-(3-(3-cyclopentyl-2-oxoimidazolin-1-yl)piperidin-1-yl)-5-((4-(1-((1-(2-(2,6-dioxopiperidin-3-yl)-1,3-dioxoisoindol-5-yl)piperidin-4-yl)methyl)piperidin-4-yl)phenyl)amino)-1,2,4-triazin-6-carboxamide]"
4,< 1,"NC(=O)c1ncc(N2CCCC(N3CCN(C4CCCC4)C3=O)C2)nc1Nc1ccc(C2(F)CCN(CC3CCN(c4ccc5c(c4)C(=O)N(C4CCC(=O)NC4=O)C5=O)C3)CC2)cc1 (stereo not drawn) [Compound 040, 5-(3-(3-cyclopentyl-2-oxoimidazolin-1-yl)piperidin-1-yl)-3-((4-(1-((1-(2-(2,6-dioxopiperidin-3-yl)-1,3-dioxoisoindolin-5-yl)pyrrolidin-3-yl)methyl)-4-fluoropiperidin-4-yl)phenyl)amino)pyrazin-2-carboxamide]"
5,< 1,"NC(=O)c1ncc(N2CCCC(N3CCN(C4COC4)C3=O)C2)nc1Nc1ccc(N2CCN(CC3CN(c4ccc5c(c4)C(=O)N(C4CCC(=O)NC4=O)C5=O)C3)CC2)cc1 (stereo not drawn) [Compound 016, 3-((4-(4-((1-(2-(2,6-dioxopiperidin-3-yl)-1,3-dioxoisoindol-5-yl)azetidine-3-yl)methyl)piperazin-1-yl)phenyl)amino)-5-(3-(3-(oxetan-3-yl)-2-oxoimidazolin-1-yl)piperidin-1-yl)pyrazin-2-carboxamide]"
6,< 1,"NC(=O)c1ncc(N2CCCC(N3CCN(C4COC4)C3=O)C2)nc1Nc1ccc2c(c1)CCN(CC1CN(c3ccc4c(c3)C(=O)N(C3CCC(=O)NC3=O)C4=O)C1)C2 (stereo not drawn) [Compound 032, 3-((2-((1-(2-(2,6-dioxopiperidin-3-yl)-1,3-dioxoisoindol-5-yl)azetidine-3-yl)methyl)-1,2,3,4-tetrahydroisoquinolin-6-yl)amino)-5-(3-(3-(oxetan-3-yl)-2-oxyimidazolin-1-yl)piperidin-1-yl)pyrazin-2-carboxamide]"
